Assay results from US11129845B2, “Compositions and methods for the delivery of nucleic acids” (CASE WESTERN RESERVE UNIVERSITY, priority 2014, dated 2021).

Columns and labels:
CHO-GFP cells = type: cell-based, Chinese hamster
Procedure: Cytotoxicity of the carriers was investigated using an MTT colorimetric assay measuring cellular metabolic activity (Invitrogen). The transfection procedure was identical to that presented for the reporter knockdown studies above, except for the fact that 96 well plates were utilized instead, and seeded with 10,000 cells per well. After transfection, the cells were allowed to grow for an additional 48 h. At that point, they were incubated with MTT for 4 h, followed by an additional 4 hour incubation with an SDS-HCl solution to dissolve any insoluble formazan crystals formed by the reduction of MTT by NAD(P)H-dependent enzymes in the cells. The absorbance of each sample was measured at 570 nm using a SpectraMax microplate reader. Cellular viability was calculated by averaging the signal intensities over three replicates and then normalizing the results relative to the negative control data.
The RNAi capabilities of each carrier were investigated by analyzing the silencing of a luciferase (Luc) reporter in HT29 cancer cells after anti-Luc siRNA therapy. To perform this study, we seeded HT29-Luc cells in 12 well plates at a density of 20,000 cells per well. […] Luciferase expression was determined using a Spectra Max luminometer upon the addition of a light-inducing substrate to the collected protein. […]

[1] = Ribogreen siRNA entrapment efficiency of ECO/siRNA nanoparticles; type: physicochemical
Excerpt: A Ribogreen assay (Molecular Probes) was used to quantify the entrapment efficiency of siRNA within the ECO/siRNA nanoparticles. […] Free siRNA following particle formation was detected using a SpectraMax microplate reader (Molecular Devices) with an excitation of 500 nm and emission of 525 nm.

[2] = Agarose gel retardation (siRNA loading); type: physicochemical
Procedure: The ability of ECO to complex and condense siRNA was assessed by gel electrophoresis. […] The gel was submerged in 0.5×Tris/Borate/EDTA (TBE) buffer and run at 100 V for 25 minutes. Free siRNA was run as the control. SiRNA bands were visualized using an AlphaImager ultraviolet imaging system (Biosciences). […] Following incubation, samples were loaded onto a 1% agarose gel containing ethidium bromide and run in the same manner as described. […] At each intermittent time point, aliquots were taken and stored at −80° C. After the final aliquot was taken at 24 hours, samples were incubated for 30 minutes with heparin at a heparin/siRNA (w/w) ratio of 5 to release the complexed siRNA cargo and each sample was loaded on the 1% agarose gel and run as described above. Free siRNA was also incubated in 50% serum for 0.5, 1, 6, or 24 hours and stored and run on the gel in a similar manner.

[3] = Nanoparticle diameter and polydispersity by dynamic light scattering (Malvern Zetasizer); type: physicochemical; conditions: for Nanoparticle diameter as measured by dynamic light scattering: siRNA-lipid complexes
Procedure: (§1) The cationic lipid carriers are dissolved in ethanol at a stock concentration of 2.5 mM, while all siRNA is reconstituted in nuclease-free water at a 0.25 μg/μL (18.8 μM) concentration. Nanoparticles are formulated by mixing the carriers with siRNA for a period of 30 min in RNase-free phosphate buffer saline (PBS) at pre-specified N/P ratios (N=number of protonable amines in lipid, P=number of phosphate groups in the siRNA). In preparing the lipoplexes, proper dilutions were made such that the volume ratio of ethanol:water was kept constant at 1:20. Minimizing the amount of ethanol is important because it is effective in dissolving lipids, thus inhibiting particle formation. The diameters (as determined by dynamic light scattering) and zeta potentials of all nanoparticles were analyzed using a Malvern Zetasizer instrument at pH=7.4. siRNA encapsulation efficiency was calculated using a RiboGreen fluorescence-based assay from Invitrogen, designed specifically for detection of free RNA at […] wavelengths of 480 and 520 nm, respectively. Nanoparticles were created with all carriers in the library so that final siRNA concentrations were 1.6 μg/mL. A linear standard curve was utilized to calculate the encapsulation efficiencies from signal intensities measured by a SpectraMax microplate reader (Molecular Devices).

[4] = Zeta-potential of siRNA-lipid complexes (Malvern Zetasizer); type: physicochemical
Procedure: as §1

[5] = test system: HT29 colon carcinoma cells; assay: Cellular uptake of Alexa Fluor 488-siRNA via flow cytometry; type: cell-based, human; conditions: HT29, N/P=18, 4 h, 100 nM Alexa Fluor 488-siRNA
Procedure: Flow cytometry was used to investigate the cellular uptake of our delivery system in HT29 colon carcinoma cells. All carriers in the library were formulated into nanoparticles by condensing Alexa Fluor 488-labeled siRNA at the optimal N/P ratio determined by the above luciferase knockdown studies. Approximately 50,000 cancer cells were seeded in 6-well plates and allowed to grow until 30-50% confluence was reached. The cancer cells were transfected with a 100 nM siRNA dose in serum-free media. After 4 h, the transfection media were aspirated and the cells were washed twice with PBS. The cells were then trypsinized, collected, and fixed with 2% paraformaldehyde in PBS, prior to flow cytometric analysis.

HT29-Luc cells = assay: MTT cytotoxicity in HT29-Luc cells; type: cell-based, human

Q: Which results are given for CCCCCCCC/C=C\CCCCCCCC(=O)N[C@@H](CS)C(=O)NCCNC(=O)CCN(CCN)CCC(=O)NCCNC(=O)[C@H](CS)NC(=O)CCCCCCC/C=C\CCCCCCCC [ECO, (1-aminoethyl)iminobis[N-(oleicylcysteinyl-1-amino-ethyl)propionamide]]?
A: cell viability (MTT) (CHO-GFP cells): greater than 85%; siRNA entrapment (RiboGreen) ([1]; N/P=6): 82.1±4.3%; siRNA entrapment (RiboGreen) ([1]; N/P=20): 98.7±5.0%; N/P ratio at which complexed siRNA was completely prevented from migrating through the gel [2]: ≥ 14; N/P ratio at which no siRNA signal was observed in the loading well [2]: ≥ 18; Polydispersity of siRNA-lipid complexes ([3]; N/P = 2): 0.245; Polydispersity of siRNA-lipid complexes ([3]; N/P = 5): 0.200; Polydispersity of siRNA-lipid complexes ([3]; N/P = 8): 0.157; Polydispersity of siRNA-lipid complexes ([3]; N/P = 10): 0.136; Polydispersity of siRNA-lipid complexes ([3]; N/P = 15): 0.005; Nanoparticle diameter as measured by dynamic light scattering ([3]; N/P = 2): 468 ± 43 nm; Nanoparticle diameter as measured by dynamic light scattering ([3]; N/P = 5): 448 ± 23 nm; Nanoparticle diameter as measured by dynamic light scattering ([3]; N/P = 8): 59 ± 11 nm; Nanoparticle diameter as measured by dynamic light scattering ([3]; N/P = 10): 78 ± 12 nm; Nanoparticle diameter as measured by dynamic light scattering ([3]; N/P = 15): 42 ± 9 nm; Zeta-potential of siRNA-lipid complexes ([4]; pH = 7.4, N/P = 2): −32.20 ± 0.90 mV; Zeta-potential of siRNA-lipid complexes ([4]; pH = 7.4, N/P = 5): −16.84 ± 1.58 mV; Zeta-potential of siRNA-lipid complexes ([4]; pH = 7.4, N/P = 8): 28.82 ± 1.03 mV; Zeta-potential of siRNA-lipid complexes ([4]; pH = 7.4, N/P = 10): 25.68 ± 2.02 mV; Zeta-potential of siRNA-lipid complexes ([4]; pH = 7.4, N/P = 15): 25.19 ± 2.32 mV; cellular uptake, mean fluorescence intensity (MFI) [5]: 2571±90; cell viability (MTT) (HT29-Luc cells; HT29, N/P=18): 87.3±2.72%; cell viability (MTT) (HT29-Luc cells; HT29, N/P=20): 51.5±5.87%
